Results: patent publication US4536397A, “Antibiotics, neoviridogriseins, and their method of production” (Sanraku-Ocean Co., Ltd., priority 1983, dated 1985)
In brackets after ≈: the same amount, converted by molar mass. Starred links: 1 amine or outer side, 2 acyl side, 3 side chain; linkers in the order of their positions; H or OH if unused. Positions of bridges follow the written chain, without caps; N, C: chain ends. Non-standard residues stand in square brackets, D forms with d. Residues, ends and D or L forms follow the SMILES beside them. *: point of attachment. X1 = CC(C)C(C)C(C(=O)[*:2])N(C)[*:1]; Picolinoyl(3-OH) = O=C(c1ncccc1O)*; NMePhg = CN[CH](C(=O)O)c1ccccc1; Hyp = O=C(O)[CH]1C[CH](O)CN1; Abu = CC[CH](N)C(=O)O; Sar = CNCC(=O)O

What was measured:
[1] = Growth promotion in chicks on rye diet, 11 days; format: in vivo; conditions: diet conc 100 ppm
Description: was tested in vivo by incorporation in the diet of growing chicks. One-day old cockerels, 15 birds per treatment were used. The chicks were maintained for 11 days on a feed containing about 55% rye grain, supplemented with vitamins, minerals, fat and protein sources. The high content of rye grain normally gives poor to moderate growth, and this diet is a standard one used for screening growth promoters and antibiotic feed additives. Penicillin (100 ppm) was used as a positive control. Feed/Gain ratio is grams feed consumed per gram of weight gained. Body weight ratio is the ratio of chick body weight at the end of the 11 day study to the initial body weight. The last column is the average gain per bird (in grams).

[2] = tested on: Sarcina lutea; test: MIC, tube dilution method (incl. synergism with griseoviridin); format: cell-based; conditions: Table 1; BHI broth
[3] = Solubility in solvents; format: physicochemical; conditions: for solubility in organic solvents: methanol, ethanol, propanols, n-butanol, dioxane, acetates, ketones, benzene, toluene, chlorinated solvents, DMF, DMSO
[4] = tested on: Pseudeomonas aeruginosa; test: MIC, tube dilution method; format: cell-based; conditions: BHI broth
[5] = tested on: Staphylococcus aureus; test: MIC repeated with a far lower dilution rate; format: cell-based; conditions: for MIC: far lower dilution rate, brain heart infusion broth
Text: This MIC experiment was based on the two-fold dilutions. To differentiate neoviridogrisein II and viridogrisein in their antibiotic activity, the MIC determination was repeated with a far lower dilution rate.
Medium: brain heart infusion broth

[6] = tested on: Escherichia coli; test: MIC, tube dilution method; format: cell-based; conditions: BHI broth
[7] = tested on: Mycoplasma gallisepticum KP13; test: MIC, dilution method, Mycoplasma; format: cell-based; parameters: unit not given beside the values; conditions: Table 4; PPLO enrichment broth (Eiken)
Description: (§1) The MIC were determined by the dilution method.
Medium (1): PPLO enrichment broth (Eiken, Japan)
(§2) was tested in vitro agains several Mycoplasma strains.

[8] = tested on: Candida albicans; test: MIC, tube dilution method; format: cell-based; conditions: malt extract-yeast extract medium
[9] = tested on: Streptococcus pyogenes; test: MIC, tube dilution method; format: cell-based; conditions: BHI broth containing 10% horse blood
[10] = tested on: Salmonella gallinanum; test: MIC, tube dilution method; format: cell-based; conditions: BHI broth
[11] = tested on: Proteus vulgaris; test: MIC, tube dilution method; format: cell-based; conditions: BHI broth
[12] = tested on: Staphylococcus aureus; test: MIC, tube dilution method; format: cell-based; conditions: BHI broth
[13] = tested on: Mycoplasma agalactiae PG 2; test: MIC, dilution method, Mycoplasma; format: cell-based; conditions: Table 4; PPLO broth (Chanock's medium; Difco)
Description: as §1
(§3) (2): PPLO broth (Chanock's medium; Difco)
as §2

[14] = tested on: Mycoplasma fermentans; test: MIC, dilution method, Mycoplasma; format: cell-based; conditions: Table 4; PPLO broth (Chanock's medium; Difco)
Description: as §1, §3, §2

[15] = tested on: Mycoplasma pulmonis PG 22; test: MIC, dilution method, Mycoplasma; format: cell-based; conditions: Table 4; PPLO broth (Chanock's medium; Difco)
Description: as §1, §3, §2

[16] = tested on: Bacillus subtilis ATCC 6633; test: MIC, tube dilution method; format: cell-based; conditions: BHI broth
[17] = tested on: Staphylococcus sp.; test: MIC, tube dilution method; format: cell-based; conditions: BHI broth
[18] = tested on: Diplococcus pneumoniac type 1; test: MIC, tube dilution method; format: cell-based, Diplococcus pneumoniae; conditions: BHI broth containing 10% horse blood

CC1(C)S[C@@H]2[C@H](NC(=O)Cc3ccccc3)C(=O)N2[C@H]1C(=O)O [Penicillin]
FEED/GAIN RATIO ([1]; 11 days, grams feed consumed per gram of weight gained): 1.197 | AVG B.W.GAIN ([1]; average gain per bird, 11 days): 163.20 GMS | BODY WEIGHT RATIO ([1]; body weight at end of 11 days to initial): 5.012

CC(C)CC1NC(=O)C(NC(=O)c2ncccc2O)C(C)OC(=O)C(c2ccccc2)N(C)C(=O)C(C)NC(=O)C(C(C)C(C)C)N(C)C(=O)CN(C)C(=O)C2CCCN2C1=O (stereo not shown) [NV II, neoviridogrisein II] ({Picolinoyl(3-OH)}-TLP[Sar][X1]A[NMePhg]; ester 1-C; configuration not given here)
MIC [2]: 0.4 µg/mL | solubility in organic solvents [3]: soluble | solubility in petroleum ether and hexane [3]: practically insoluble | solubility in water and ethyl ether [3]: hardly soluble | MIC [4]: > 25 µg/mL | times more active than viridogrisein ([5]; from the MIC values of Table 2): 2-3 times | MIC ([5]; strain 209 P): 0.078 µg/mL (≈ 0.0904 µM) | MIC ([5]; strain (EM, CM, SM, PC, TC)r): 0.125 µg/mL (≈ 0.145 µM) | MIC ([5]; strain (TC, CP, PC)r): 0.094 µg/mL (≈ 0.109 µM) | MIC ([5]; strain Bx-1633(PC)r): 0.125 µg/mL (≈ 0.145 µM) | MIC ([5]; strain Russell(PC)r): 0.125 µg/mL (≈ 0.145 µM) | MIC ([5]; strain Smith): 0.125 µg/mL (≈ 0.145 µM) | MIC [6]: > 25 µg/mL | MIC [7]: 0.025 | MIC [8]: > 25 µg/mL | MIC [9]: 0.2 µg/mL (≈ 0.232 µM) | MIC [10]: > 25 µg/mL | MIC [11]: > 25 µg/mL | MIC ([12]; strain 209P): 0.1 µg/mL (≈ 0.116 µM) | MIC ([12]; strain (BX-1633)(PC)r): 0.2 µg/mL (≈ 0.232 µM) | MIC ([12]; strain (EM)r): 0.4 µg/mL (≈ 0.463 µM) | MIC ([12]; strain (EM, CM, SM, PC, TC)r): 0.2 µg/mL (≈ 0.232 µM) | MIC ([12]; strain (EM, OM)r): 0.4 µg/mL (≈ 0.463 µM) | MIC ([12]; strain (PC, EM, NM)r): 0.4 µg/mL (≈ 0.463 µM) | MIC ([12]; strain (PC, TC, EM, LM)r 1): 6.25 µg/mL (≈ 7.24 µM) | MIC ([12]; strain (PC, TC, EM, LM)r 2): 6.25 µg/mL (≈ 7.24 µM) | MIC ([12]; strain (SM, STH)r): 0.2 µg/mL (≈ 0.232 µM) | MIC ([12]; strain (STH)r): 0.8 µg/mL (≈ 0.927 µM) | MIC ([12]; strain (TC, CP, PC)r): 0.2 µg/mL (≈ 0.232 µM) | MIC ([12]; strain (TC, EM, LM, CP)r): 6.25 µg/mL (≈ 7.24 µM) | MIC ([12]; strain Russell(PC)r): 0.2 µg/mL (≈ 0.232 µM) | MIC ([12]; strain Smith): 0.2 µg/mL (≈ 0.232 µM) | MIC [13]: 0.39 | MIC [14]: < 0.05 | MIC [15]: 0.78 | MIC [16]: 0.4 µg/mL (≈ 0.463 µM) | MIC ([17]; Staphylococcus sp. (PC)r): 0.4 µg/mL (≈ 0.463 µM) | MIC ([17]; Staphylococcus sp.): 0.8 µg/mL (≈ 0.927 µM) | MIC [18]: 0.4 µg/mL (≈ 0.463 µM)

CCC1NC(=O)C(C(C)C(C)C)N(C)C(=O)CN(C)C(=O)C2CC(O)CN2C(=O)C(CC(C)C)NC(=O)C(NC(=O)c2ncccc2O)C(C)OC(=O)C(c2ccccc2)N(C)C1=O (stereo not shown) [NV III, neoviridogrisein III] ({Picolinoyl(3-OH)}-TL[Hyp][Sar][X1][Abu][NMePhg]; ester 1-C; configuration not given here)
MIC [2]: 0.4 µg/mL | solubility in organic solvents [3]: soluble | solubility in petroleum ether and hexane [3]: practically insoluble | solubility in water and ethyl ether [3]: hardly soluble | MIC [4]: > 25 µg/mL | MIC [6]: > 25 µg/mL | MIC [8]: > 25 µg/mL | MIC [9]: 0.4 µg/mL (≈ 0.448 µM) | MIC [10]: > 25 µg/mL | MIC [11]: > 25 µg/mL | MIC ([12]; strain 209P): 0.2 µg/mL (≈ 0.224 µM) | MIC ([12]; strain (BX-1633)(PC)r): 0.4 µg/mL (≈ 0.448 µM) | MIC ([12]; strain (EM)r): 0.4 µg/mL (≈ 0.448 µM) | MIC ([12]; strain (EM, CM, SM, PC, TC)r): 0.4 µg/mL (≈ 0.448 µM) | MIC ([12]; strain (EM, OM)r): 0.8 µg/mL (≈ 0.896 µM) | MIC ([12]; strain (PC, EM, NM)r): 0.4 µg/mL (≈ 0.448 µM) | MIC ([12]; strain (PC, TC, EM, LM)r 1): 6.25 µg/mL (≈ 7 µM) | MIC ([12]; strain (PC, TC, EM, LM)r 2): 6.25 µg/mL (≈ 7 µM) | MIC ([12]; strain (SM, STH)r): 0.2 µg/mL (≈ 0.224 µM) | MIC ([12]; strain (STH)r): 1.6 µg/mL (≈ 1.79 µM) | MIC ([12]; strain (TC, CP, PC)r): 0.4 µg/mL (≈ 0.448 µM) | MIC ([12]; strain (TC, EM, LM, CP)r): 6.25 µg/mL (≈ 7 µM) | MIC ([12]; strain Russell(PC)r): 0.4 µg/mL (≈ 0.448 µM) | MIC ([12]; strain Smith): 0.2 µg/mL (≈ 0.224 µM) | MIC [16]: 0.8 µg/mL (≈ 0.896 µM) | MIC ([17]; Staphylococcus sp. (PC)r): 0.8 µg/mL (≈ 0.896 µM) | MIC ([17]; Staphylococcus sp.): 0.8 µg/mL (≈ 0.896 µM) | MIC [18]: 0.2 µg/mL (≈ 0.224 µM)
